{"source": "patent US20240148728A1", "about": "“NOVEL METHOD TO BLOCK IN[…] DEATH AND IL-1BETA SECRETION CAUSED BY […] UV I[…] GENETIC AND CHEMICAL INHIBITORS OF ZAKA AND THE NLRP1 INFLAMMASOME” (priority 2021, published 2024)", "key": {"[1]": {"system": "immortalized keratinocytes (N-TERT)", "experiment": "Pyroptosis / apoptosis in N-TERT keratinocytes (morphology, ASC-GFP, PI, Annexin V, immunoblot)", "assay_type": "cell-based, human", "details": "for mode of cell death (apoptosis / pyroptosis): Annexin V staining and PI inclusion, immunoblot markers", "from_the_text": "(§1) The following antibodies were used in this study: cleaved PARP1 (Abclonal, #WH162766), Cleaved CASP3 (Abclonal, #WH154646), Full length GSDMD-FL (Abcam, #ab210070), IL1β p17 specific (CST, #83186S), CARD8 (Abcam, CARD8-NT: ab19485, CARD8-CT: ab241186), DPP9 (Abcam, ab226334), c-Myc (Santa Cruz Biotechnology, #sc-40), HA tag (Santa Cruz Biotechnology, #sc-805), GAPDH (Santa Cruz Biotechnology, #sc-47724), ASC (Adipogen, #AL-177), CASP1 (Santa Cruz Biotechnology, #sc-622), 11_1B (R&D systems, #AF-201), FLAG (SigmaAldrich, #F3165), NLRP1 (R&D systems, #AF6788), IL18 (Abcam ab207324), cleaved GSDMD-NT (Asp275) (Cell Signaling Technology, #36425), RPL31 (Abclonal, #WH162766), CASP7 (Abcam, ab255818), CASP8 (Abcam, ab32397), cleaved CASP3 (Cell Signaling Technology, #9664). All horseradish peroxidase (HRP)— conjugated secondary antibodies were purchased from Jackson Immunoresearch (goat anti-mouse IgG: 115-035-166; goat anti-rabbit IgG: 111-035-144; and donkey anti-goat IgG: 705-005-147). Blue-Native PAGE was carried out using the Native-PAGE system (ThermoFisher) with 10-20 μg of total lysate. For SDS-PAGE using whole cell lysates, cells were resuspended in tris-buffered saline 1% NP-40 with protease inhibitors (Thermo Scientific, #78430). Protein concentration was determined using the Bradford assay (Thermo Scientific, #23200) and […] of protein loaded, a part from cleaved GSDMD-NT visualisation where […] of protein was used. All primary antibodies were used at 250 ng/ml. Visualisation of ASC oligomerization was previously described (Robinson et al., 2020). For analysis of IL1β and IL-18 cleavage in the media by immunoblotting, samples were concentrated using filtered centrifugation (Merck, Amicon Ultra, #UFC5003BIK). Protein samples were run using immunoblotting, and then visualized using a ChemiDoc Imaging system (Bio-Rad). PhosTag SDS-PAGE was carried out using homemade 10% SDS-PAGE gel, with addition of Phos-tag Acrylamide (Wako Chemicals, AAL-107) to a final concentration of 30 μM and manganese chloride(II) (Sigma-Aldrich, #63535) to 60 μM.\nN-TERT-ASC-GFP cells were seeded at a cell density of 3000 cells/well of a 96 black well plate (PerkinElmer, CellCarrier-96 Ultra, #6055300). The next morning cells were treated with chemicals for 6 h or treated in the evening for 24 h before staining. 1 hour before observing the cells on the microscope the cells were stained with 1 μg/ml dilution of propidium iodide (PI, Abcam #ab14083), 10 ng/ml dilution of Hoechst 33342 (Life Technologies, #H21492) or stained with Annexin V Alexa Flour 647 (Life technologies, #A23204) according to the manufacturer's protocol. Stained cells were then imaged on a high content screening microscope (Perkin Elmer Operetta CLS imaging system). Images were then stored and analyzed using the Harmony software (Version 6). Fluorescent and brightfield images acquired on the Operetta high content screening microscope were further analyzed using a scoring system to categorize the percentages of live, apoptotic and pyroptotic cells. For 3 fields of view per treatment the number of live cells per field was counted from the merge of the brightfield and ASC-GFP channels. Only cells which contained ASC-GFP throughout the cytoplasm and nucleus were classed as “live”. The number of pyroptotic cells was calculated using the merge of the brightfield and ASC-GFP channels. Only the cells with GFP specks were classed as “pyroptotic”. The number of apoptotic cells was calculated using the merge of the brightfield, ASC-GFP and Annexin V channels. Cells that were stained positive for Annexin V but without a GFP speck were classified as “apoptotic”. Images of ASC-GFP specks were acquired in 3 random fields in 4′,6-diaminidino-2-phenylindole (DAPI, 358 nm/461) and GFP (469 nm/525 nm) channels using the EVOS microscope (FL Auto M5000, #AM F5000) according to the manufacturer's protocol. […]"}, "3D organotypic skin": {"system": "3D organotypic skin", "experiment": "Secreted cytokines/chemokines from 3D organotypic skin (ELISA, Luminex)", "assay_type": "cell-based, human", "experimental": "Organotypic cultures were generated by adapting a previously described protocol (Arnette et al., 2016). Briefly, 2 ml of collagen I (4 mg/ml; Corning, #354249) mixed with 7.5×10^5 human fibroblasts were allowed to polymerize over 1-m1 acellular collagen I in 6-well culture inserts (Falcon, #353102) placed in 6-well deep well plate (Falcon, #355467). After 24 hours, 1×10^6 primary human keratinocytes were seeded into the inserts and kept submerged in a 3:1 DMEM (Hyclone, #SH30243.01) and F12 (Gibco, #31765035) mixture with 10% FBS (Hyclone, #SV30160.03), 100 U/ml penicillin-streptomycin (Gibco, #15140122), 10 μM Y-27632 (Tocris, #1254), 10 ng/ml EGF (Sigma-Aldrich, #E9644), 1×10^−10 M cholera toxin (Enzo, #BML-G117-001), 0.4 μg/ml hydrocortisone (Sigma-Aldrich, #H0888), 0.0243 mg/ml adenine (Sigma-Aldrich, #A2786), 5 μg/ml insulin (Sigma-Aldrich, #12643), 5 μg/ml transferrin (Sigma-Aldrich, #T2036) and 2×10^−9 M 3,3′,5′-triiodo-L-thyronine (Sigma-Aldrich, #T6397). After another 24 hours, the organotypic cultures were then raised at the air-liquid interface and fed with the submerged media (without Y-27632 and EGF) below the insert to induce epidermal differentiation. The air-lifting medium was replaced every 2 days and treatments began 10-14 days after airlifting. Organotypic cultures were then harvested 24 hours after treatment and formalin fixed for 24 hours. […]"}, "NLRP1^DR": {"system": "NLRP1^DR", "experiment": "NLRP1 PYD-DR1 / NLRP1^DR phosphorylation (GFP fusion, immunoblot, PhosTag SDS-PAGE) in N-TERT cells", "assay_type": "cell-based, human", "details": "NLRP1 KO N-TERT cells expressing GFP-tagged NLRP1^DR; various kinase inhibitors", "from_the_text": "as §1\nCells were directly harvested using Laemmli buffer, lysed with an ultrasonicator, and loaded into the Phos-tag gel to run. Once the run was completed, the polyacrylamide gel was washed in transfer buffer with 10 mM EDTA twice, subsequently washed without EDTA twice, blotted onto 0.45 μm PVDF membranes (Bio-rad), blocked with 3% milk, and incubated with primary and corresponding secondary antibodies."}, "human skin explants": {"system": "human skin explants", "experiment": "UVB-induced IL1β in human skin explants", "details": "UVB 100 or 250 mJ/cm^2, harvest 24 hours later", "from_the_text": "Waste surgical skin tissues from abdomen and breast were collected with appropriate informed consent of the patients and sent to the Asian Skin Biobank (ASB worldwidewebdota-stardotedudotsg/sris/technology-platforms/asian-skin-biobank) at the Skin Research Institute of Singapore (SRIS) (under A*STAR IRB 2020-209). Fresh skin tissue was cleaned in solutions of HBSS with decreasing concentrations of Penicillin, Streptomycin and Fungizone. Then 8-mm skin biopsies were punched and submerged in culture media. Skin explants were immediately irradiated with UVB or treated with VbP.\nFor UVA and UVB irradiation experiments, cells were seeded 24 hours prior to irradiation, and washed once in phosphate buffered saline pH 7.4 before being exposed to indicated dose of irradiation using a BIO-SUN microprocessor controlled, cooled UV irradiation system (BIO-SUN, Vilber). After exposure, PBS was replaced by keratinocyte medium and cells were incubated for indicated time.\nTo measure secreted cytokine and chemokine levels a human IL1β enzyme linked immunosorbent assay (ELISA) kit (BD, #557953), human IL-18 ELISA kit (MBL, #7620) or an Immune Monitoring 65-Plex Human ProcartaPlex Panel (EPX650-10065-901) were used according to manufacturer's protocols. […]"}, "ZAKα": {"biological_target": "ZAKα (Homo sapiens, UniProt Q9NYL2)", "sequence (Q9NYL2 whole entry)": "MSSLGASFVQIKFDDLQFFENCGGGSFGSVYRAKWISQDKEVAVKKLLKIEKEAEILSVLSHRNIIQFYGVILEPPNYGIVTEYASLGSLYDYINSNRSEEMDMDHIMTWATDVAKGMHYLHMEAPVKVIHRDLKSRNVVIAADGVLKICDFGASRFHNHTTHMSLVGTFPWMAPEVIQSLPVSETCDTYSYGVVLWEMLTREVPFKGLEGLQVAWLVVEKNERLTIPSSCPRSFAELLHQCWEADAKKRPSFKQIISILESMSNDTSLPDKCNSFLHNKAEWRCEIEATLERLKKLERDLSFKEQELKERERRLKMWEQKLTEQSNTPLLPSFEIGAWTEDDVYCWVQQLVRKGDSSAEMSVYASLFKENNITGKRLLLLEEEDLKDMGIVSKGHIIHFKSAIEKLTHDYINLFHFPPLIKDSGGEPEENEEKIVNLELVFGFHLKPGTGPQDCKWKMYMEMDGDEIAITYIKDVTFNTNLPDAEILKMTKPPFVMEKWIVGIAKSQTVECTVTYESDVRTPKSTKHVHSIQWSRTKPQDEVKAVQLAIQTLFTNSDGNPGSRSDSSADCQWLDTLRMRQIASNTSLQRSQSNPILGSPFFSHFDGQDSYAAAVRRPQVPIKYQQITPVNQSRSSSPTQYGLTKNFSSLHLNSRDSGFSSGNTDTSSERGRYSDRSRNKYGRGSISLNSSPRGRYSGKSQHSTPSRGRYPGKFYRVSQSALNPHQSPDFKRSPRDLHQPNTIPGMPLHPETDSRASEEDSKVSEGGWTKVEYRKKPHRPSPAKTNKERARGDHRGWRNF", "details": "cited from earlier work"}, "N-TERT cells": {"system": "N-TERT cells", "experiment": "Secreted IL1β / inflammasome activation in N-TERT cells", "assay_type": "cell-based, human", "details": "ZAKα KO N-TERT cells", "experimental": "To measure secreted cytokine and chemokine levels a human IL1β enzyme linked immunosorbent assay (ELISA) kit (BD, #557953), human IL-18 ELISA kit (MBL, #7620) or an Immune Monitoring 65-Plex Human ProcartaPlex Panel (EPX650-10065-901) were used according to manufacturer's protocols. Further analysis of Luminex or ELISA profiling of samples was performed using heatmap and PCA analysis on Clustervis (biitdotcsdotutdotee/clustvis/) [Somani et al., Proceeding of SSIC (2019)].\nas §1"}, "[2]": {"system": "3D human organotypic skin", "experiment": "3D organotypic skin histology and cleaved GSDMD-NT immunostaining", "assay_type": "cell-based", "details": "immunostaining", "experimental": "Organotypic cultures were generated by adapting a previously described protocol (Arnette et al., 2016). Briefly, 2 ml of collagen I (4 mg/ml; Corning, #354249) mixed with 7.5×10^5 human fibroblasts were allowed to polymerize over 1-m1 acellular collagen I in 6-well culture inserts (Falcon, #353102) placed in 6-well deep well plate (Falcon, #355467). After 24 hours, 1×10^6 primary human keratinocytes were seeded into the inserts and kept submerged in a 3:1 DMEM (Hyclone, #SH30243.01) and F12 (Gibco, #31765035) mixture with 10% FBS (Hyclone, #SV30160.03), 100 U/ml penicillin-streptomycin (Gibco, #15140122), 10 μM Y-27632 (Tocris, #1254), 10 ng/ml EGF (Sigma-Aldrich, #E9644), 1×10^−10 M cholera toxin (Enzo, #BML-G117-001), 0.4 μg/ml hydrocortisone (Sigma-Aldrich, #H0888), 0.0243 mg/ml adenine (Sigma-Aldrich, #A2786), 5 μg/ml insulin (Sigma-Aldrich, #12643), 5 μg/ml transferrin (Sigma-Aldrich, #T2036) and 2×10^−9 M 3,3′,5′-triiodo-L-thyronine (Sigma-Aldrich, #T6397). After another 24 hours, the organotypic cultures were then raised at the air-liquid interface and fed with the submerged media (without Y-27632 and EGF) below the insert to induce epidermal differentiation. The air-lifting medium was replaced every 2 days and treatments began 10-14 days after airlifting. Organotypic cultures were then harvested 24 hours after treatment and formalin fixed for 24 hours. Fixed tissues were then embedded into wax for histological purposes.\nFor immunohistochemistry staining of cleaved N-terminal GSDMD a previously established protocol with modifications was used [Wang et al., Cell 180:941-955.e20 (2020)]. Briefly, 5 μm formalin fixed and paraffin embedded sections were deparaffinized and rehydrated through a series of alcohol. The sections were then rehydrated in an antigen retrieval buffer (Dako, Tris-EDTA, pH 9). Sections were then blocked in goat serum for 20 mins at RT before primary antibody incubated overnight at 4° C. Immunostaining was visualised using DAB substrate and chromogen detection kit (Dako, #K3468). Sections were then counterstained with Myer's Hematoxylin."}, "ASC": {"system": "ASC", "experiment": "Phosphorylation of inflammasome adaptor ASC", "assay_type": "cell-based, human", "details": "data not shown"}, "HB-EGF": {"system": "HB-EGF", "experiment": "HB-EGF expression by RNAseq after TNFα priming", "assay_type": "cell-based, human", "details": "FKPM by RNAseq", "experimental": "Library preparation, QC and high-throughput sequencing were provided by Macrogen, Singapore. RNA isolation and library preparation was carried out as previously described [Robinson et al., Science (2020)]."}}, "note": "Entries after “also recorded” stand apart in the source; their conditions may differ."}
{"molecule": "COc1ccc(C[C@H](N)C(=O)N[C@H]2[C@@H](O)[C@H](n3cnc4c(N(C)C)ncnc43)O[C@@H]2CO)cc1", "note": "[PURO, Puromycin]", "values": [{"measurement": "mode of cell death (apoptosis / pyroptosis)", "setting": "[1]", "value": "kills cells exclusively via apoptosis"}, {"measurement": "chemokine/cytokine profile versus untreated", "setting": "3D organotypic skin", "value": "very few cytokines/chemokines differed"}]}
{"molecule": "C=CC(=O)N1CCCC(c2ccnc(Nc3cc(C(=O)Nc4cc(-n5cnc(C)c5)cc(C(F)(F)F)c4)ccc3C)n2)C1", "note": "(stereo not drawn) [M443, 4-methyl-N-[3-(4-methylimidazol-1-yl)-5-(trifluoromethyl)phenyl]-3-[[4-(1-prop-2-enoylpiperidin-3-yl)pyrimidin-2-yl]amino]benzamide]", "values": [{"measurement": "effect on ANS-triggered NLRP1 hyperphosphorylation", "setting": "NLRP1^DR", "value": "can effectively block ANS-triggered NLRP1 hyperphosphorylation"}, {"measurement": "effect on UVB-induced IL1β / NLRP1 activation", "setting": "human skin explants", "value": "reduction in UVB-induced IL1β; also recorded: effective at blocking UVB induced NLRP1 activation and IL1beta release"}]}
{"molecule": "COc1cc(O)c2c(c1)/C=C/C[C@H](O)[C@H](O)C(=O)/C=C\\C[C@H](C)OC2=O", "note": "[5-Z-7-oxozeanol, 5Z-7-Oxozeaenol]", "values": [{"measurement": "effect on ANS-triggered NLRP1 hyperphosphorylation", "setting": "NLRP1^DR", "value": "can effectively block ANS-triggered NLRP1 hyperphosphorylation"}, {"measurement": "potency against ZAKα compared with TAK1", "setting": "ZAKα", "value": "almost the same potency as its reported target TAK1"}]}
{"molecule": "CC(C)[C@H](N)C(=O)N1CCC[C@H]1B(O)O", "note": "[VbP, Talabostat]", "values": [{"measurement": "mode of cell death (apoptosis / pyroptosis)", "setting": "[1]", "value": "exclusively triggers pyroptosis"}, {"measurement": "time to induce detectable pyroptosis", "setting": "[1]; wild-type N-TERT cells, PI positive cells", "value": "at least 5 hours"}, {"measurement": "IL1β secretion and pyroptotic death in ZAKα KO cells", "setting": "N-TERT cells", "value": "remained fully sensitive"}, {"measurement": "cleaved GSDMD N-terminal fragment at the cell membrane", "setting": "[2]", "value": "prominently enriched at the cell membrane"}, {"measurement": "phosphorylation of ASC", "setting": "ASC", "value": "not phosphorylated"}]}
{"molecule": "TNFα", "values": [{"measurement": "increased expression of DT entry receptor HB-EGF", "setting": "HB-EGF", "value": "> 5", "unit": "fold"}]}
